Source: PMC11971462, “Generation and validation of a novel multitarget small molecule in glioblastoma” (Cell Death & Disease, 2025)

Tested on: GNS166 cells
Test: Label-free proteomics differential expression
Assay type: cell-based, human
Description: Proteomic studies were performed by the Proteomics Facility of the CIC bioGUNE by label-free relative quantification on nLC MS/MS. […] In both approaches, the top 20 enriched terms were plotted and the pathways were clustered using divisive hierarchical clustering based on pairwise Jaccard distances.

C#CCN(Cc1cc2cc(OCCCN3CCCCC3)ccc2n1S(=O)(=O)c1ccccc1)C(=O)CCCCCCC(=O)NO [DDI]
LogFC THG1_HUMAN (protein Q9NWX6): -0.1726
Direction F120C_HUMAN (protein Q9NX05): Down
LogFC F120C_HUMAN (protein Q9NX05): -0.4931
Direction IMPA3_HUMAN (protein Q9NX62): Down
LogFC IMPA3_HUMAN (protein Q9NX62): -2.939
Direction NSMA3_HUMAN (protein Q9NXE4): Down
LogFC NSMA3_HUMAN (protein Q9NXE4): -1.089
Direction TRM1_HUMAN (protein Q9NXH9): Down
LogFC TRM1_HUMAN (protein Q9NXH9): -1.158
Direction GTSE1_HUMAN (protein Q9NYZ3): Down
LogFC GTSE1_HUMAN (protein Q9NYZ3): -2.523
Direction F120A_HUMAN (protein Q9NZB2): Down
LogFC F120A_HUMAN (protein Q9NZB2): -0.8566
Direction MYOF_HUMAN (protein Q9NZM1): Down
LogFC MYOF_HUMAN (protein Q9NZM1): -1.514
LogFC SPN90_HUMAN (protein Q9NZQ3 GN=NCKIPSD): 0.408
LogFC H2AW_HUMAN (protein Q9P0M6 GN=MACROH2A2): -2.056
Direction RCC2_HUMAN (protein Q9P258): Down
LogFC RCC2_HUMAN (protein Q9P258): -0.788
Direction MO4L1_HUMAN (protein Q9UBU8): Down
LogFC MO4L1_HUMAN (protein Q9UBU8): -1.829
LogFC SE1L1_HUMAN (protein Q9UBV2 GN=SEL1L): 1.64
Direction CSN7A_HUMAN (protein Q9UBW8): Down
LogFC CSN7A_HUMAN (protein Q9UBW8): -0.366
Direction QCR9_HUMAN (protein Q9UDW1): Down
LogFC QCR9_HUMAN (protein Q9UDW1): -1.3801
Direction ABCF2_HUMAN (protein Q9UG63): Down
LogFC ABCF2_HUMAN (protein Q9UG63): -0.9684
LogFC SEC63_HUMAN (protein Q9UGP8 GN=SEC63): -0.6574
Direction Z3H7B_HUMAN (protein Q9UGR2): Down
LogFC Z3H7B_HUMAN (protein Q9UGR2): -0.582
Direction ABC3B_HUMAN (protein Q9UH17): Down
LogFC ABC3B_HUMAN (protein Q9UH17): -2.711
LogFC PCYOX_HUMAN (protein Q9UHG3 GN=PCYOX1): 1.78
Direction DDX20_HUMAN (protein Q9UHI6): Down
LogFC DDX20_HUMAN (protein Q9UHI6): -1.492
LogFC NB5R1_HUMAN (protein Q9UHQ9 GN=CYB5R1): 0.825
LogFC VATH_HUMAN (protein Q9UI12 GN=ATP6V1H): 0.8971
LogFC PRAF1_HUMAN (protein Q9UI14 GN=RABAC1): -1.449
LogFC DDX41_HUMAN (protein Q9UJV9 GN=DDX41): -0.9972
LogFC CDC23_HUMAN (protein Q9UJX2 GN=CDC23): -0.6966
Direction APC7_HUMAN (protein Q9UJX3): Down
LogFC APC7_HUMAN (protein Q9UJX3): -0.9681
LogFC NOCT_HUMAN (protein Q9UK39 GN=NOCT): 0.6965
LogFC CCNL1_HUMAN (protein Q9UK58 GN=CCNL1): -1.514
LogFC BORG2_HUMAN (protein Q9UKI2 GN=CDC42EP3): 1.338
LogFC DEN2A_HUMAN (protein Q9ULE3 GN=DENND2A): -2.086
Direction HEG1_HUMAN (protein Q9ULI3): Down
LogFC HEG1_HUMAN (protein Q9ULI3): -2.228
Direction PKHG1_HUMAN (protein Q9ULL1): Down
LogFC PKHG1_HUMAN (protein Q9ULL1): -2.254
Direction HECD1_HUMAN (protein Q9ULT8): Down
LogFC HECD1_HUMAN (protein Q9ULT8): -1.1597
Direction TPX2_HUMAN (protein Q9ULW0): Down
LogFC TPX2_HUMAN (protein Q9ULW0): -2.6733
LogFC SYNRG_HUMAN (protein Q9UMZ2 GN=SYNRG): 0.8469
Direction MAGD2_HUMAN (protein Q9UNF1): Down
LogFC MAGD2_HUMAN (protein Q9UNF1): -1.225
Direction DIM1_HUMAN (protein Q9UNQ2): Down
LogFC DIM1_HUMAN (protein Q9UNQ2): -1.324
Direction CP131_HUMAN (protein Q9UPN4): Down
LogFC CP131_HUMAN (protein Q9UPN4): -0.9726
Direction TRI33_HUMAN (protein Q9UPN9): Down
LogFC TRI33_HUMAN (protein Q9UPN9): -0.5693
LogFC BAIP2_HUMAN (protein Q9UQB8 GN=BAIAP2): 0.1397
LogFC AKAP2_HUMAN (protein Q9Y2D5 GN=AKAP2): 0.8401
Direction WBP11_HUMAN (protein Q9Y2W2): Down
LogFC WBP11_HUMAN (protein Q9Y2W2): -1.003
LogFC RM11_HUMAN (protein Q9Y3B7 GN=MRPL11): -0.5878
Direction UFC1_HUMAN (protein Q9Y3C8): Down
LogFC UFC1_HUMAN (protein Q9Y3C8): -1.4452
Direction FBX7_HUMAN (protein Q9Y3I1): Down
LogFC FBX7_HUMAN (protein Q9Y3I1): -0.6256
LogFC SAMH1_HUMAN (protein Q9Y3Z3 GN=SAMHD1): 0.753
LogFC TRRAP_HUMAN (protein Q9Y4A5 GN=TRRAP): -1.346
Direction ARIP4_HUMAN (protein Q9Y4B4): Down
LogFC ARIP4_HUMAN (protein Q9Y4B4): -1.479
LogFC IRS2_HUMAN (protein Q9Y4H2 GN=IRS2): 2.2713
Direction TBL2_HUMAN (protein Q9Y4P3): Down
LogFC TBL2_HUMAN (protein Q9Y4P3): -0.6001
LogFC NDK7_HUMAN (protein Q9Y5B8 GN=NME7): 2.17
Direction PCDGH_HUMAN (protein Q9Y5G0): Down
LogFC PCDGH_HUMAN (protein Q9Y5G0): -2.292
LogFC CD2AP_HUMAN (protein Q9Y5K6 GN=CD2AP): 0.4294
LogFC BZW2_HUMAN (protein Q9Y6E2 GN=BZW2): 0.8735
LogFC OAS3_HUMAN (protein Q9Y6K5 GN=OAS3): -0.7466
Direction WASF2_HUMAN (protein Q9Y6W5): Down
LogFC WASF2_HUMAN (protein Q9Y6W5): -1.033
Direction NS1BP_HUMAN (protein Q9Y6Y0): Down
LogFC NS1BP_HUMAN (protein Q9Y6Y0): -2.1021
LogFC S23IP_HUMAN (protein Q9Y6Y8 GN=SEC23IP): 0.5141
Direction GLCNE_HUMAN (protein Q9Y223): Down
LogFC GLCNE_HUMAN (protein Q9Y223): -0.915
LogFC HPSE_HUMAN (protein Q9Y251 GN=HPSE): 0.7253
Direction EIF3L_HUMAN (protein Q9Y262): Down
LogFC EIF3L_HUMAN (protein Q9Y262): -0.4083
Direction AAR2_HUMAN (protein Q9Y312): Down
LogFC AAR2_HUMAN (protein Q9Y312): -1.2504
LogFC SKAP_HUMAN (protein Q9Y448 GN=KNSTRN): -1.456
Direction TLN1_HUMAN (protein Q9Y490): Down
LogFC TLN1_HUMAN (protein Q9Y490): -0.5101
LogFC PPME1_HUMAN (protein Q9Y570 GN=PPME1): 1.066
LogFC FHOD1_HUMAN (protein Q9Y613 GN=FHOD1): 1.204
LogFC JAM1_HUMAN (protein Q9Y624 GN=F11R): 1.904
Direction GPC6_HUMAN (protein Q9Y625): Down
LogFC GPC6_HUMAN (protein Q9Y625): -2.082
Direction S12A7_HUMAN (protein Q9Y666): Down
LogFC S12A7_HUMAN (protein Q9Y666): -2.1239
LogFC EM55_HUMAN (protein Q00013 GN=MPP1): 0.8133
Direction NAA25_HUMAN (protein Q14CX7): Down
LogFC NAA25_HUMAN (protein Q14CX7): -1.1158
Direction PDS5A_HUMAN (protein Q29RF7): Down
LogFC PDS5A_HUMAN (protein Q29RF7): -1.029
LogFC H1BP3_HUMAN (protein Q53T59 GN=HS1BP3): 2.722
LogFC GL8D1_HUMAN (protein Q68CQ7 GN=GLT8D1): -1.2539
